Common to all, as to assay type: functional
Common to all, as to conditions: 168 h

In one test the test system is Nannizzia gypsea. Put plainly: Antifungal activity against Microsporum gypseum after 7 days by broth microdilution test. On the technique in general: In broth dilution the organism is exposed to a series of concentrations in liquid medium.
The subject of the next test is Microsporum canis. Put plainly: Antifungal activity against Microsporum canis after 7 days by broth microdilution test.
The next test concerns Trichophyton violaceum. Put plainly: Antifungal activity against Trichophyton violaceum after 7 days by broth microdilution test.
The test system of the next test is Microsporum. Put plainly: Antifungal activity against Microsporum sp. after 7 days by broth microdilution test.
The subject of another test is Trichophyton tonsurans. Put plainly: Antifungal activity against Trichophyton tonsurans after 7 days by broth microdilution test.
In test [1] the test system is Trichophyton mentagrophytes. Put plainly: Antifungal activity against Trichophyton mentagrophytes after 7 days by broth microdilution test.
Another test relates to Trichophyton. Put plainly: Antifungal activity against Trichophyton sp. after 7 days by broth microdilution test.
In another test the test system is Epidermophyton floccosum. Put plainly: Antifungal activity against Epidermophyton floccosum after 7 days by broth microdilution test.
The subject of a further test is Candida. Put plainly: Antifungal activity against Candida after 7 days by broth microdilution test.
A further test relates to Trichophyton soudanense. Put plainly: Antifungal activity against Trichophyton soudanense after 7 days by broth microdilution test.
Test [2] in a line: Antifungal activity against Cryptococcus after 7 days by broth microdilution test.
For a further test, the system named is Trichophyton rubrum. Put plainly: Antifungal activity against Trichophyton rubrum after 7 days by broth microdilution test.
In a further test the test system is Paraphyton cookei. Put plainly: Antifungal activity against Microsporum cookei after 7 days by broth microdilution test.

≈ marks a conversion by molar mass, not a printed value.

By MIC is commonly meant the least concentration at which growth counts as inhibited. A lower MIC goes with greater potency. A word on the MIC50: it is the lowest concentration that inhibits either 50% of growth or 50% of the strains tested, depending on the study. As usually defined, the MIC90 is the lowest concentration that inhibits either 90% of growth or 90% of the strains tested, depending on the study. A low value points to greater potency. For `CCCCCc1cc[n+](CCCCCCCCCCCC[n+]2ccc(CCCCC)cc2)cc1.[Cl-].[Cl-]`, the MIC against Nannizzia gypsea was 2.41 µg/mL; with Microsporum canis it was 2.95 µg/mL; in the test with Trichophyton violaceum, 8.96 µg/mL; against Microsporum it was 2.24 µg/mL; against Trichophyton tonsurans it was 2.8 µg/mL; in test [1] it was 9.01 µg/mL. Also, the MIC in the test with Trichophyton was 6.98 µg/mL; against Epidermophyton floccosum it was 7.63 µg/mL; against Candida it was 0.6 µg/mL; with Trichophyton soudanense, 14.5 µg/mL; in test [2], 0.6 µg/mL; in the test on Trichophyton rubrum, 10.4 µg/mL. This compound returned an MIC against Paraphyton cookei of 1.06 µg/mL. Also, the MIC50 was found to be 2 µg/mL against Microsporum; 2 µg/mL in the test with Trichophyton tonsurans; 8 µg/mL in [1]; 8 µg/mL in the test with Trichophyton; 8 µg/mL with Trichophyton rubrum. In addition, the MIC90 with Microsporum was determined as 4 µg/mL; against Trichophyton tonsurans, 8 µg/mL; in test [1] it was 16 µg/mL; against Trichophyton, 16 µg/mL; in the test on Trichophyton rubrum, 16 µg/mL.
Take `CN(Cc1ccc(C(C)(C)C)cc1)Cc1cccc2ccccc12` [BUTENAFINE]: the MIC against Nannizzia gypsea is 0.084 µg/mL (≈ 0.265 µM); with Microsporum canis, 0.101 µg/mL (≈ 0.318 µM); against Trichophyton violaceum it was 0.063 µg/mL (≈ 0.198 µM); in the test on Microsporum, 0.106 µg/mL (≈ 0.334 µM); against Trichophyton tonsurans, 0.04 µg/mL (≈ 0.126 µM); in test [1], 0.063 µg/mL (≈ 0.198 µM). Also, the MIC was 0.074 µg/mL (≈ 0.233 µM) against Trichophyton; 0.081 µg/mL (≈ 0.255 µM) with Epidermophyton floccosum; 0.059 µg/mL (≈ 0.186 µM) in the test with Trichophyton soudanense; 0.05 µg/mL (≈ 0.157 µM) against Trichophyton rubrum; 0.153 µg/mL (≈ 0.482 µM) against Paraphyton cookei. Also, the MIC50 against Microsporum worked out at 0.125 µg/mL (≈ 0.394 µM); against Trichophyton tonsurans, 0.031 µg/mL (≈ 0.0976 µM); in test [1], 0.063 µg/mL (≈ 0.198 µM); against Trichophyton, 0.063 µg/mL (≈ 0.198 µM); in the test on Trichophyton rubrum it was 0.063 µg/mL (≈ 0.198 µM). The MIC90 came to 0.125 µg/mL (≈ 0.394 µM) with Microsporum; 0.063 µg/mL (≈ 0.198 µM) with Trichophyton tonsurans; 0.125 µg/mL (≈ 0.394 µM) in test [1]; 0.125 µg/mL (≈ 0.394 µM) in the test with Trichophyton; 0.125 µg/mL (≈ 0.394 µM) in the test with Trichophyton rubrum.
As for `CCC(C)n1ncn(-c2ccc(N3CCN(c4ccc(OCC5COC(Cn6cncn6)(c6ccc(Cl)cc6Cl)O5)cc4)CC3)cc2)c1=O` (stereo not given) [ITRACONAZOLE], the MIC in the test on Nannizzia gypsea was 3.68 µg/mL (≈ 5.22 µM); with Microsporum canis, 1.23 µg/mL (≈ 1.74 µM); against Trichophyton violaceum it was 3.3 µg/mL (≈ 4.68 µM); in the test on Microsporum, 2.63 µg/mL (≈ 3.73 µM); with Trichophyton tonsurans, 1.65 µg/mL (≈ 2.33 µM); in test [1] it was 1.68 µg/mL (≈ 2.38 µM). For the same compound, the MIC in the test with Trichophyton is 1.99 µg/mL (≈ 2.82 µM); in the test on Epidermophyton floccosum it was 0.226 µg/mL (≈ 0.32 µM); against Trichophyton soudanense it was 3.42 µg/mL (≈ 4.85 µM); in the test on Trichophyton rubrum, 1.96 µg/mL (≈ 2.77 µM); in the test with Paraphyton cookei, 6 µg/mL (≈ 8.5 µM). Moreover, the MIC50 is 4 µg/mL (≈ 5.67 µM) with Microsporum; 2 µg/mL (≈ 2.83 µM) with Trichophyton tonsurans; 2 µg/mL (≈ 2.83 µM) in test [1]; 2 µg/mL (≈ 2.83 µM) with Trichophyton; 2 µg/mL (≈ 2.83 µM) against Trichophyton rubrum. Also, the MIC90 against Microsporum stood at 8 µg/mL (≈ 11.3 µM); in the test with Trichophyton tonsurans it was 4 µg/mL (≈ 5.67 µM); in [1], 4 µg/mL (≈ 5.67 µM); in the test on Trichophyton, 4 µg/mL (≈ 5.67 µM); with Trichophyton rubrum it was 4 µg/mL (≈ 5.67 µM).
Turning to `CCCCCCCCCCCCCCCCOP(=O)([O-])OCC[N+](C)(C)C` [MILTEFOSINE], the MIC against Nannizzia gypsea is 0.842 µg/mL (≈ 2.07 µM); against Microsporum canis, 0.555 µg/mL (≈ 1.36 µM); against Trichophyton violaceum, 0.328 µg/mL (≈ 0.805 µM); against Microsporum, 0.75 µg/mL (≈ 1.84 µM); against Trichophyton tonsurans it was 0.398 µg/mL (≈ 0.977 µM); in test [1] it was 1.13 µg/mL (≈ 2.78 µM). For the same compound, the MIC in the test with Trichophyton is 0.652 µg/mL (≈ 1.6 µM); with Epidermophyton floccosum, 0.548 µg/mL (≈ 1.34 µM); in the test on Trichophyton soudanense, 0.52 µg/mL (≈ 1.28 µM); with Trichophyton rubrum it was 0.547 µg/mL (≈ 1.34 µM); in the test on Paraphyton cookei, 0.866 µg/mL (≈ 2.12 µM). The MIC50 came to 1 µg/mL (≈ 2.45 µM) with Microsporum; 0.25 µg/mL (≈ 0.613 µM) against Trichophyton tonsurans; 1 µg/mL (≈ 2.45 µM) in [1]; 0.5 µg/mL (≈ 1.23 µM) in the test with Trichophyton; 0.5 µg/mL (≈ 1.23 µM) in the test on Trichophyton rubrum. The MIC90 with Microsporum was 1 µg/mL (≈ 2.45 µM); in the test with Trichophyton tonsurans, 1 µg/mL (≈ 2.45 µM); in [1], 2 µg/mL (≈ 4.91 µM); in the test with Trichophyton, 1 µg/mL (≈ 2.45 µM); with Trichophyton rubrum it was 1 µg/mL (≈ 2.45 µM).
Regarding `CN(C/C=C/C#CC(C)(C)C)Cc1cccc2ccccc12` [TERBINAFINE], the MIC with Nannizzia gypsea amounted to 0.065 µg/mL (≈ 0.223 µM); with Microsporum canis it was 0.083 µg/mL (≈ 0.285 µM); against Trichophyton violaceum it was 0.063 µg/mL (≈ 0.216 µM); with Microsporum, 0.075 µg/mL (≈ 0.257 µM); with Trichophyton tonsurans it was 0.03 µg/mL (≈ 0.103 µM); in test [1], 0.03 µg/mL (≈ 0.103 µM). In addition, the minimal inhibitory concentration (MIC) against Trichophyton amounted to 0.044 µg/mL (≈ 0.151 µM); against Epidermophyton floccosum, 0.059 µg/mL (≈ 0.202 µM); with Trichophyton soudanense, 0.039 µg/mL (≈ 0.134 µM); in the test with Trichophyton rubrum, 0.035 µg/mL (≈ 0.12 µM); in the test on Paraphyton cookei, 0.077 µg/mL (≈ 0.264 µM). The MIC50 against Microsporum was 0.063 µg/mL (≈ 0.216 µM); in [1], 0.031 µg/mL (≈ 0.106 µM); against Trichophyton, 0.031 µg/mL (≈ 0.106 µM); in the test with Trichophyton rubrum, 0.031 µg/mL (≈ 0.106 µM). Further, the MIC90 came to 0.125 µg/mL (≈ 0.429 µM) in the test on Microsporum, 0.063 µg/mL (≈ 0.216 µM) in [1], 0.063 µg/mL (≈ 0.216 µM) with Trichophyton and 0.063 µg/mL (≈ 0.216 µM) against Trichophyton rubrum.

Source of the values: ChEMBL document CHEMBL1143819, “In vitro activities of miltefosine and two novel antifungal biscationic salts against a panel of 77 dermatophytes” (2007).
